Experimental data: PubChem BioAssay AID1259407 (Chemical Carcinogenesis Research Information System (CCRIS), 2018)
The source made the active and inactive calls. No rule for the calls is given here.

System: CCRIS mutagenicity, Ames/micronucleus/aberration tests
Test: CCRIS mutagenicity studies
[1] = Test System: AMES SALMONELLA TYPHIMURIUM, Strain/Indicator: TA98, Metabolic Activation: NONE, Method: PREINCUBATION
[2] = Test System: AMES SALMONELLA TYPHIMURIUM, Strain/Indicator: TA100, Metabolic Activation: NONE, Method: PREINCUBATION
[3] = Test System: AMES SALMONELLA TYPHIMURIUM, Strain/Indicator: TA100, Metabolic Activation: NONE, Method: STANDARD PLATE

In the case of `O=C1NC(=O)C2CC=CCC12` (stereo unspecified), the mutagenic call (Test System: AMES SALMONELLA TYPHIMURIUM, Strain/Indicator: TA102, Metabolic Activation: NONE, Method: STANDARD PLATE) was “inactive; negative”, the mutagenic call (Test System: AMES SALMONELLA TYPHIMURIUM, Strain/Indicator: TA102, Metabolic Activation: RAT, LIVER, S-9, PHENOBARBITAL, Method: STANDARD PLATE) was “inactive; negative” and the mutagenic call (Test System: AMES SALMONELLA TYPHIMURIUM, Strain/Indicator: TA104, Metabolic Activation: NONE, Method: STANDARD PLATE) was “inactive; negative”. For the same compound, the mutagenic call (Test System: AMES SALMONELLA TYPHIMURIUM, Strain/Indicator: TA104, Metabolic Activation: RAT, LIVER, S-9, PHENOBARBITAL, Method: STANDARD PLATE) was “inactive; negative”.

In the case of `CC(Br)CBr` (stereo unspecified), the mutagenic call (Test System: AMES SALMONELLA TYPHIMURIUM, Strain/Indicator: TA97, Metabolic Activation: NONE, Method: STANDARD PLATE) was “inactive; negative”, the mutagenic call (Test System: AMES SALMONELLA TYPHIMURIUM, Strain/Indicator: TA97, Metabolic Activation: RAT, LIVER, S-9, PCB, Method: STANDARD PLATE) was “inactive; negative” and the mutagenic call [1] was “inactive; negative”. For the same compound, the mutagenic call (Test System: AMES SALMONELLA TYPHIMURIUM, Strain/Indicator: TA98, Metabolic Activation: RAT LIVER S-9, PHENOBARBITAL AND BETA-NAPHTHOFLAVONE, Method: PREINCUBATION) was “inactive; negative”, the mutagenic call [2] was “inactive; negative” and the mutagenic call [3] was “inactive; negative”. For the same compound, the mutagenic call (Test System: AMES SALMONELLA TYPHIMURIUM, Strain/Indicator: TA100, Metabolic Activation: RAT LIVER S-9, PHENOBARBITAL AND BETA-NAPHTHOFLAVONE, Method: PREINCUBATION) was “inactive; negative”, the mutagenic call (Test System: AMES SALMONELLA TYPHIMURIUM, Strain/Indicator: TA100, Metabolic Activation: RAT, LIVER, MICROSOMES, PHENOBARBITAL, NADPH COFACTORS, Method: STANDARD PLATE) was “active; positive” and the mutagenic call (Test System: AMES SALMONELLA TYPHIMURIUM, Strain/Indicator: TA100, Metabolic Activation: RAT, LIVER, MICROSOMES, PHENOBARBITAL, Method: STANDARD PLATE) was “active; positive”. For the same compound, the mutagenic call (Test System: AMES SALMONELLA TYPHIMURIUM, Strain/Indicator: TA100, Metabolic Activation: RAT, LIVER, S-9, PCB, Method: STANDARD PLATE) was “inactive; negative”, the mutagenic call (Test System: AMES SALMONELLA TYPHIMURIUM, Strain/Indicator: TA1534, Metabolic Activation: HOST-MEDIATED, Method: IN VIVO) was “inactive; negative” and the mutagenic call (Test System: AMES SALMONELLA TYPHIMURIUM, Strain/Indicator: TA1535, Metabolic Activation: NONE, Method: PREINCUBATION) was “inactive; negative”. The mutagenic call (Test System: AMES SALMONELLA TYPHIMURIUM, Strain/Indicator: TA1537, Metabolic Activation: NONE, Method: PREINCUBATION) was “inactive; negative”, the mutagenic call (Test System: AMES SALMONELLA TYPHIMURIUM, Strain/Indicator: TA1537, Metabolic Activation: RAT LIVER S-9, PHENOBARBITAL AND BETA-NAPHTHOFLAVONE, Method: PREINCUBATION) was “inactive; negative” and the mutagenic call (Test System: AMES SALMONELLA TYPHIMURIUM, Strain/Indicator: TA1950, Metabolic Activation: HOST-MEDIATED, Method: IN VIVO) was “inactive; negative”. For the same compound, the mutagenic call (Test System: E.COLI, Strain/Indicator: WP2UVRA, Metabolic Activation: NONE, Method: PREINCUBATION) was “inactive; negative”, the mutagenic call (Test System: E.COLI, Strain/Indicator: WP2UVRA, Metabolic Activation: RAT LIVER S-9, PHENOBARBITAL AND BETA-NAPHTHOFLAVONE, Method: PREINCUBATION) was “inactive; negative” and the mutagenic call (Test System: UDS RAT HEPATOCYTES, Strain/Indicator: THY INCORP, Metabolic Activation: NONE) was “active; positive”.

With `CC(=O)Nc1ccc(S(N)(=O)=O)cc1` the mutagenic call [1] was “inactive; negative”, the mutagenic call (Test System: AMES SALMONELLA TYPHIMURIUM, Strain/Indicator: TA98, Metabolic Activation: RAT, LIVER, S-9, AROCLOR 1254, Method: PREINCUBATION) was “inactive; negative” and the mutagenic call [2] was “inactive; negative”. The mutagenic call (Test System: AMES SALMONELLA TYPHIMURIUM, Strain/Indicator: TA100, Metabolic Activation: RAT, LIVER, S-9, AROCLOR 1254, Method: PREINCUBATION) was “inactive; negative”.

With `COc1ccc(CON(OC(C)=O)C(=O)c2ccccc2)cc1` the mutagenic call [3] was “active; positive” and the mutagenic call (Test System: AMES SALMONELLA TYPHIMURIUM, Strain/Indicator: TA100, Metabolic Activation: RAT, S-9, AROCLOR, Method: STANDARD PLATE) was “active; positive”.

For `OC1CC=Cc2cccnc21` (stereo unspecified), the mutagenic call [3] was “inactive; negative” and the mutagenic call (Test System: AMES SALMONELLA TYPHIMURIUM, Strain/Indicator: TA100, Metabolic Activation: RAT, LIVER, S-9, AROCLOR 1254 (10 OR 20%), Method: STANDARD PLATE) was “inactive; negative”.

In the case of `CC12OOC1Oc1ccccc12` (stereo unspecified), the mutagenic call [2] was “active; positive”.

In the case of `O=Cc1cn([C@@H]2O[C@H](CO)[C@@H](O)[C@H]2O)c(=O)[nH]c1=O`, the mutagenic call (Test System: CHINESE HAMSTER V-79, Strain/Indicator: V-79 (HPRT)/6-THIOGUANINE, Metabolic Activation: NONE, Method: STANDARD PLATE) was “inactive; negative”.

`CCc1ccc(/C=C/c2ccc([N+](=O)[O-])cc2)cc1` was tested, and the mutagenic call (Test System: AMES SALMONELLA TYPHIMURIUM, Strain/Indicator: TA98, Metabolic Activation: NONE, Method: STANDARD PLATE) was “active; positive”, the mutagenic call (Test System: AMES SALMONELLA TYPHIMURIUM, Strain/Indicator: TA98, Metabolic Activation: RAT, LIVER, S-9, AROCLOR, Method: STANDARD PLATE) was “active; positive” and the mutagenic call [3] was “active; positive”. For the same compound, the mutagenic call (Test System: AMES SALMONELLA TYPHIMURIUM, Strain/Indicator: TA100, Metabolic Activation: RAT, LIVER, S-9, AROCLOR, Method: STANDARD PLATE) was “active; positive”.
